Among the data in ChEMBL document CHEMBL3244083, “Fluorinated Pyrimidine nucleosides. 1. Synthesis of a nitrogen analogue of the antitumor agent 2,2'-anhydro-1-beta-D-arabinofuranosyl-5-fluorocytosine hydrochloride” (J Med Chem, 1977) are TGI and Stability values, retold here.

Active and inactive are the calls of the source. The rule behind the calls is not given here.

The test system of data set [1] is CCRF S-180. Description: Antitumor activity against mouse S180 cells allografted in mouse assessed as tumor growth inhibition at 50 mg/kg, ip qd for 8 days. Type of data set: functional, organism-based. The arrangement: dose 50 mg/kg.
For data set [2], the system named is CCRF S-180. The data set is described as follows: Antitumor activity against mouse S180 cells allografted in mouse assessed as tumor growth inhibition at 1 to 5 mg/kg, ip qd for 8 days. Type of data set: functional, organism-based.
Data set [3] in a line: Stability of the compound at pH 7.4. Type of data set: physicochemical. Particulars: buffer.
The subject of data set [4] is CCRF S-180. Description: Antitumor activity against mouse S180 cells allografted in mouse assessed as tumor growth inhibition at 5 mg/kg, ip qd for 8 days. Type of data set: functional, organism-based. Further details: dose 5 mg/kg.
Data set [5] deals with CCRF S-180. The data set is described as follows: Antitumor activity against mouse S180 cells allografted in mouse assessed as tumor growth inhibition at 100 mg/kg, ip qd for 8 days. Type of data set: functional, organism-based. The arrangement: dose 100 mg/kg.

Regarding `Nc1nc(N)[n+]([C@@H]2O[C@H](CO)[C@@H](O)[C@H]2O)cc1F`, in data set [1], the TGI entry is “inactive”.
For the compound `Nc1nc(=O)n([C@@H]2O[C@H](CO)[C@@H](O)[C@H]2O)cc1F`, the TGI entry in data set [2] is “Active”.
On to `Nc1nc(=O)c(F)cn1[C@@H]1O[C@H](CO)[C@@H](O)[C@H]1O`, for which, in data set [1], the TGI result was “inactive”.
As for `O=c1nc2n(cc1F)[C@@H]1O[C@H](CO)[C@@H](O)[C@@H]1N2`, the TGI entry in data set [1] is “inactive”. Also, in data set [3], the Stability result was “Stable”.
For the compound `O=c1[nH]c(=O)n([C@@H]2O[C@H](CO)[C@@H](O)[C@H]2O)cc1F`, the TGI entry in data set [4] was “Active”.
For the compound `O=c1[nH]c(=O)n([C@@H]2O[C@H](CI)[C@@H](O)[C@H]2O)cc1F`, the TGI entry in data set [1] is “inactive”.
In the case of `Nc1nc2[n+](cc1F)[C@@H]1O[C@H](CO)[C@@H](O)[C@@H]1N2.[Cl-]`, the TGI entry in data set [5] was “inactive”. Moreover, in data set [3], the Stability entry was “Stable”.
